Several values for one entry are separate records, joined by “and”; a condition that tells them apart may be missing. Identical values can stand only once. Entries after “also recorded” stand apart in the source; their conditions may differ. Like-named read-outs stand apart in the source and are kept apart here.
Legend:
hCav2.1 = experiment: Whole-cell patch clamp, recombinant hCav2.1 in HEK293; assay type: cell-based, human; conditions: 10 µM
Protocol: (§1) Human embryonic kidney (HEK293T) cells containing the SV40 Large T-antigen were cultured at 37°C, 5% CO2 in Dulbecco’s Modified Eagle’s Medium (DMEM, Invitrogen Life Technologies, Australia), supplemented with 10% fetal bovine serum (FBS, Bovigen, Australia), 1% GlutaMAX and penicillin-streptomycin (Invitrogen, Australia). […]
(§2) Depolarization-activated Ca^2+ currents (ICa) in transfected HEK293 cells were recorded in the whole-cell patch clamp configuration. Data were recorded using a MultiClamp 700B amplifier, digitized with a DigiData1440 and controlled using Clampex10.7 software (Molecular Devices, United States). […]
(§3) Statistical significance (p < 0.05) was determined using unpaired Student’s t-test or 1-way ANOVA followed by a Tukey multiple comparison. […]
(§4) Numerous HVA Cav channel isoforms are present in rat DRG neurons. […] We transiently co-transfected the individual Cav channel α-subunits of interest together with β3 and α2δ1 subunits in HEK293 cells and measured whole-cell I Ca currents by patch clamp. […]

rCav2.2 = experiment: Whole-cell patch clamp, recombinant rCav2.2 in HEK293; assay type: cell-based, rat; conditions: 10 µM
Protocol: as §1, §2, §3, §4

[1] = system: Cav1.2, Cav1.3, Cav2.1, and Cav2.2
Protocol: as §1, §2, §3, §4

[2] = system: mouse models of acute postsurgical pain; conditions: in vivo; cited from earlier work
hNav1.7 = hNav1.7 (Homo sapiens, UniProt Q15858); assay type: cell-based
Excerpt: (§5) An EPC-9 patch-clamp amplifier and corresponding PULSE software from HEKA Electronik (Lambrecht/Pfalz, Germany) were used to make recordings. Currents were sampled at 50 kHz and recorded on a hard disk. Borosilicate glass from AM Systems, Everett, WA, United States were used for patch pipettes. The input resistance of the pipettes ranged from 2 to 4 MΩ. […] A built-in procedure of the HEKA amplifier compensated for the capacitive transient currents. A −P/6 protocol was utilized to subtract leak current online. I Ca was generated with the recording protocol which included a depolarization from a holding potential of −80 mV to 0 mV for 10 ms every 30 s. I Na was generated through a recording protocol which included a step depolarization from a holding potential of −80 mV to 0 mV for 10 ms at a frequency of 0.1 Hz. Cells were perfused with the test compound via a pressure driven perfusion system (AutoMate Scientific, United States).

hCav2.2 [3] = molecular target: T1, hCav2.2 (Homo sapiens, UniProt Q00975); experiment: hCav2.2 voltage dependence of activation; assay type: cell-based
T1 construct: expressed in transfected cells; host or cells: HEK293 (HEK293T), transient calcium phosphate co-transfection
T1 sequence (P54289 25-956): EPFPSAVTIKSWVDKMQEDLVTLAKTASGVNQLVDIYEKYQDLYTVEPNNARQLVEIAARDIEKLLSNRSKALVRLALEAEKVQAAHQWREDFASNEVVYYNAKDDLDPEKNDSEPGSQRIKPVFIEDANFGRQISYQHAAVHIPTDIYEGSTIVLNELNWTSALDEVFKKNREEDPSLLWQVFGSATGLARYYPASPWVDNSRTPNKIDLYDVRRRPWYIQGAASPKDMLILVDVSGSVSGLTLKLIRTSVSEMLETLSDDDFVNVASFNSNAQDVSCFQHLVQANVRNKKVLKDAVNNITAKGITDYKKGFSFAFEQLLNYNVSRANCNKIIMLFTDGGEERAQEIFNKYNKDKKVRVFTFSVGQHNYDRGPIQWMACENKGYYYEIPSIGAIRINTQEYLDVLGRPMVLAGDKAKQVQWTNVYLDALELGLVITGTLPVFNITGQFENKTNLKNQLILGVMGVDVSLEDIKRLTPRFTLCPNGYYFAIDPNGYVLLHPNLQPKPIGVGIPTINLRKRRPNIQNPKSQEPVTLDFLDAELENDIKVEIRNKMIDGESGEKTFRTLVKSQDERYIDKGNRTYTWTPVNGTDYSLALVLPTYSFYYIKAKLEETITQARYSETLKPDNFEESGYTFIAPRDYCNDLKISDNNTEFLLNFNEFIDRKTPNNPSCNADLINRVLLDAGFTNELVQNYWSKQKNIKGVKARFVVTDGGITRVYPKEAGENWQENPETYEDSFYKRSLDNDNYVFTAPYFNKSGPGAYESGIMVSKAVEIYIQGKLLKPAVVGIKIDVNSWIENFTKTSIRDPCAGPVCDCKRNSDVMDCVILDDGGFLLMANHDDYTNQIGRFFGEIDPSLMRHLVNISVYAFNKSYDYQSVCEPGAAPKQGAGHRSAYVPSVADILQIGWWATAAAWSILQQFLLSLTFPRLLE
T1 sequence (P54289 957-1103): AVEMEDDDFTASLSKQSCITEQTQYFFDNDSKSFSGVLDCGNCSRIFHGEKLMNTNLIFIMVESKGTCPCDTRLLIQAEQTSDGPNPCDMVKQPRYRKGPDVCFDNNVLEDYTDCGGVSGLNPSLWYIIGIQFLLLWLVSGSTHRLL
T1 sequence (Q00975 whole entry): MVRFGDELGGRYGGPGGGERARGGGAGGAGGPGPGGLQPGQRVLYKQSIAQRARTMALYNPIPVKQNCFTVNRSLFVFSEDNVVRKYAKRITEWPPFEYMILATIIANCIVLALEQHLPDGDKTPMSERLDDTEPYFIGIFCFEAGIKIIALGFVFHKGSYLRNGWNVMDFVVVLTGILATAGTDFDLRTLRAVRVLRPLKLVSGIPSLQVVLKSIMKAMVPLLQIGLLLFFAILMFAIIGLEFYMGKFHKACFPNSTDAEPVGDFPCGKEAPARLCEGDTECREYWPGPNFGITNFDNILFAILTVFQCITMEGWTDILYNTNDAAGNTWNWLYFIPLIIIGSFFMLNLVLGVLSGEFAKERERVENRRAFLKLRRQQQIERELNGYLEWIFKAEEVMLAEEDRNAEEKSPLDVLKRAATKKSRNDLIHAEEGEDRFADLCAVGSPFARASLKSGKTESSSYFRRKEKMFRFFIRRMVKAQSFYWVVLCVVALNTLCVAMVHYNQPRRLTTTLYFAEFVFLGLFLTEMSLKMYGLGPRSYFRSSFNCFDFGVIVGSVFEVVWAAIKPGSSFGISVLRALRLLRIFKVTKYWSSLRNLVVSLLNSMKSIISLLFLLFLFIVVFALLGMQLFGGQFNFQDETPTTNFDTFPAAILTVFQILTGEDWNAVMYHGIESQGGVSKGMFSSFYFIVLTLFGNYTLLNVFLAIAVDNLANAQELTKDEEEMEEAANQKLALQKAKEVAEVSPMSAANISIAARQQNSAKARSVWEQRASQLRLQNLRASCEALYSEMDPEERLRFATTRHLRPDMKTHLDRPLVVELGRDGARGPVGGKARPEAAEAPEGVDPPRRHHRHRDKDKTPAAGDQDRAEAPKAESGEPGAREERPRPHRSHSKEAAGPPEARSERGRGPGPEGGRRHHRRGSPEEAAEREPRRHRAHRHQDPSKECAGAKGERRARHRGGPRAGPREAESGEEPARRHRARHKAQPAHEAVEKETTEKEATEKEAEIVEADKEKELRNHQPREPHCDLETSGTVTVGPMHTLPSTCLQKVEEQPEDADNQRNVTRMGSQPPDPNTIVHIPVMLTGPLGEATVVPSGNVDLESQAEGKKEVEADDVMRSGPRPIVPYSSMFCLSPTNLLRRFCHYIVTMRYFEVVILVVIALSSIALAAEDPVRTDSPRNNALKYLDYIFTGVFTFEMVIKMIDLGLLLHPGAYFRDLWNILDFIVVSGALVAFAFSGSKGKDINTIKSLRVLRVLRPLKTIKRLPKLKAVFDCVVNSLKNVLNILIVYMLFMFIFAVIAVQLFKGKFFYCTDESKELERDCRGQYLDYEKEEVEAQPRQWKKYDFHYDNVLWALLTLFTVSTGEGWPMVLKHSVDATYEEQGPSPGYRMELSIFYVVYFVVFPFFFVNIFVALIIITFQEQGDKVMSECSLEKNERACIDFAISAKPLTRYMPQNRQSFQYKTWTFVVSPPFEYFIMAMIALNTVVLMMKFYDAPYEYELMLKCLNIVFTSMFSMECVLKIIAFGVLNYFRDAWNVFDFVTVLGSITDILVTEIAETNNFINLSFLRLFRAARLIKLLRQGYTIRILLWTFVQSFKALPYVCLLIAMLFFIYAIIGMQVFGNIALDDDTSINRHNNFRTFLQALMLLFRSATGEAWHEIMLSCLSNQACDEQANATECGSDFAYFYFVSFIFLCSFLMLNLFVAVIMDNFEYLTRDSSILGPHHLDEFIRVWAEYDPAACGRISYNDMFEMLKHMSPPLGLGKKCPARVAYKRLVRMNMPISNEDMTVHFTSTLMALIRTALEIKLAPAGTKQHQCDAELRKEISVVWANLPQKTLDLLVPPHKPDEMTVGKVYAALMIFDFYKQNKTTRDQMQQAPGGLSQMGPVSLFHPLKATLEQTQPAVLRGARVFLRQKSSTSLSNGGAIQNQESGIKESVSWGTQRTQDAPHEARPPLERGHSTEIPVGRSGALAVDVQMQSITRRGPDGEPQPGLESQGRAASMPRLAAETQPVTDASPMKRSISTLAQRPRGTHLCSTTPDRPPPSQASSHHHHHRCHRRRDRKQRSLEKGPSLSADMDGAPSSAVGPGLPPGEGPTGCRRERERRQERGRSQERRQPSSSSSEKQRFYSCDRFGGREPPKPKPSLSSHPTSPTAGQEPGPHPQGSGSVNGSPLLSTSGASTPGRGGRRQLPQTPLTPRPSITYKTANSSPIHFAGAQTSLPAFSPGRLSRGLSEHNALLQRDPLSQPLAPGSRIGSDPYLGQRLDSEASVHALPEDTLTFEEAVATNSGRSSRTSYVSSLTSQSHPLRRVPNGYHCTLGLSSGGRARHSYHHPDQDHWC
T1 sequence (P54284 whole entry, further chain): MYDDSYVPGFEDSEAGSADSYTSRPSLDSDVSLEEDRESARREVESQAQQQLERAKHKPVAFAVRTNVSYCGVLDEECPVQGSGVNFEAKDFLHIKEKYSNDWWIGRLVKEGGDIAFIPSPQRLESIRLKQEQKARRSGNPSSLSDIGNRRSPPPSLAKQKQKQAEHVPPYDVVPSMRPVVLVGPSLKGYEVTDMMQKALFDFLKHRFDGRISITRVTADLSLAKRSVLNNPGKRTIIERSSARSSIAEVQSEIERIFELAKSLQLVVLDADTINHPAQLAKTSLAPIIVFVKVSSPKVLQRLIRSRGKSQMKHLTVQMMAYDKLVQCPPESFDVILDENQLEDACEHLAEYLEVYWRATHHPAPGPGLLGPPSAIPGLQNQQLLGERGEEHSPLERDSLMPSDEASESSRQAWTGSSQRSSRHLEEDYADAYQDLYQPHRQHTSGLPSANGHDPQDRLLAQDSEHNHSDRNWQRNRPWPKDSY
Protocol: (§6) Human embryonic kidney (HEK293T) cells containing the SV40 Large T-antigen were cultured at 37°C, 5% CO2 in Dulbecco’s Modified Eagle’s Medium (DMEM, Invitrogen Life Technologies, Australia), supplemented with 10% fetal bovine serum (FBS, Bovigen, Australia), 1% GlutaMAX and penicillin-streptomycin (Invitrogen, Australia). HEK293 cells were then transiently co-transfected with the different voltage-gated calcium channel isoforms and green fluorescent protein (GFP) for visualization, using the calcium phosphate method. cDNAs encoding mCav1.2 (a gift from Dr. D. Lipscombe; Addgene plasmid #26572) ([Helton et al., 2005]), rCav1.3 (a gift from Dr. D. Lipscombe; Addgene plasmid # 49,333) ([Xu and Lipscombe, 2001]), hCav2.1 (a gift from Dr. J. Striessnig), rCav2.2 (a gift from Dr. D. Lipscombe), hCav2.2 (a gift from Dr. D. Yue), hCav2.3 (purchased from GenScript United States Inc.) were co-transfected with β3, α2δ1 and GFP. After transfection, cells were plated on 12 mm cover glass and transferred to a 30°C incubator for 1–3 days.
Depolarization-activated Ca^2+ currents (ICa) in transfected HEK293 cells were recorded in the whole-cell patch clamp configuration. Data were recorded using a MultiClamp 700B amplifier, digitized with a DigiData1440 and controlled using Clampex10.7 software (Molecular Devices, United States). Currents were sampled at 100 kHz and filtered to 10 kHz, with leak and capacitive currents subtracted using a −P/4 protocol. […] Intracellular recording solution contained as follows (mM): 140 KGluconate, 5 NaCl, 2 MgCl2, 5 EGTA and 10 HEPES, pH 7.2 with KOH. Cells were continuously perfused with extracellular solution at a rate of ∼1.2 ml/min. […] Activation curves of hCav2.2 were generated through a series of test pulses (50 ms) ranging from −30 to +50 mV (Δ5 mV) every 5 s with a holding potential of −90 mV. […]
as §3

hCav2.2 [4] = molecular target: T1, hCav2.2; experiment: hCav2.2 steady-state inactivation (SSI); assay type: cell-based
Protocol: as §6, with “After transfection, cells were plated on 12 mm cover glass and transferred to a 30°C incubator for 1–3 days.” left out
as §2, §3

[5] = system: HVA I Ca in small-diameter IB4 ^− DRG neurons; experiment: cells
Protocol: Spinal level L3–L5 DRG were removed and placed in ice-cold HEPES-buffered saline (HBS) composed of (in mM): 154 NaCl, 2.5 KCl, 1.8 CaCl2, 1.5 MgCl2, 10 HEPES, and 10 glucose (pH 7.4, 330 ± 5 mOsm). Iridectomy scissors were utilized to cut up ganglia before incubation at 37°C for 15 min in oxygenated HBS containing 5 mg ml^−1 collagenase type 2 (Worthington Biochemical Corp, Lakewood, NJ, United States) followed by 25 min in oxygenated HBS containing 1 mg ml^−1 papain (Worthington Biochemical Corp). […] After enzyme treatment, ganglia were placed in 3 ml of HBS following two room temperature HBS washes. Ganglia were then triturated through fire-polished Pasteur pipettes with decreasing bores to extract cells. Finally, the cells mixed in HBS were plated onto surface modified culture dishes (Corning Primaria™ easy grip). […] DRG cells were pre-treated with 1 μg ml^−1 Alexa Fluor 488-conjugated Bandeiraea simplicifolia IB4 (Invitrogen) for 5 min at room temperature and washed with HBS for 5 min before fluorescence was examined on the inverted microscope (Olympus, IX50) used for patch clamp recordings.
Cell size was determined from an eyepiece graticule. Whole-cell electrophysiology was conducted at room temperature (22–24°C) in culture dishes perfused with room temperature HBS. The intracellular pipette solution contained (mM): 120 CsCl, 10 HEPES, 10 EGTA, 2 CaCl2, 5 MgATP, 5 Na2GTP, 5 NaCl; pH 7.3 (CsOH); 285 ± 5 mos mol l^−1.
as §5
All data analysis and graphs were generated in OriginPro (Origin Lab Corporation, United States). […] Activation and SSI curves were fit by the modified Boltzmann equation: I or G=1/(1+exp(Vm−V0.5/ka)) Where I is the current or G is the conductance, Vm is the pre-pulse potential, V 0.5 is the half-maximal activation potential and ka is the slope factor.
Statistical significance (p < 0.05) was determined using unpaired Student’s t-test or 1-way ANOVA followed by a Tukey multiple comparison. All data is presented as mean ± SEM (n), where n is individual cells.

## CSCC[C@@H]1NC(=O)[C@H](Cc2ccc(O)cc2)NC(=O)[C@H](CCCNC(=N)N)NC(=O)[C@@H](NC(=O)[C@@H](N)CC(=O)O)CSSC[C@@H]2NC(=O)[C@@H]3CSSC[C@@H](C(=O)N[C@@H](C)C(=O)N[C@@H](Cc4c[nH]c5ccccc45)C(=O)N[C@@H](CC(=O)O)C(=O)N[C@@H](Cc4ccccc4)C(=O)N[C@H](C(=O)N[C@@H](Cc4ccccc4)C(=O)N[C@H](C(=O)O)[C@@H](C)O)[C@@H](C)O)NC(=O)[C@H](Cc4ccc(O)cc4)NC(=O)[C@H](CCCCN)NC(=O)[C@H](CCSC)NC(=O)[C@H](CCCCN)NC(=O)[C@H](CCCNC(=N)N)NC(=O)[C@H](CCCCN)NC(=O)[C@H](CSSC[C@H](NC(=O)[C@H](CC(=O)O)NC(=O)CNC(=O)[C@H](Cc4ccccc4)NC1=O)C(=O)N[C@@H](CCC(=O)O)C(=O)N[C@@H](CCCCN)C(=O)N[C@@H](CC(=O)O)C(=O)N[C@@H](CCC(=O)O)C(=O)N[C@@H](CC(=O)O)C(=O)N3)NC(=O)CNC(=O)[C@H](CC(C)C)NC(=O)[C@H](Cc1c[nH]cn1)NC(=O)[C@H](CCCCN)NC2=O [Pn3a, µ-Theraphotoxin-Pn3a]
hCav2.1
  inhibition of Cav2.1-mediated current: 58.0 ± 1.8%
rCav2.2
  inhibition of rat Cav2.2-mediated current: 69.5 ± 1.0%
[1]
  reversibility of block on washout: fully reversible upon washout
[2]
  antinociceptive behavior in acute postsurgical pain (in words): causes antinociceptive behavior
hNav1.7
  concentration at which inhibition is reliably distinguished from current rundown: > 10 nM
  difference in hNav1.7 potency from reported value: ~30 fold
  reversibility of hNav1.7 inhibition: virtually irreversible at higher concentrations
hCav2.2 [3]
  V0.5 of activation: 11.7 ± 0.1 mV
  effect on voltage dependence of activation (in words): slightly shifted; also recorded: without apparent changes in channel activation
  slope factor ka of activation: 3.7 ± 0.1
hCav2.2 [4]
  V0.5 of steady-state inactivation: −69.8 ± 0.3 mV
  slope factor ka of steady-state inactivation: 10.5 ± 0.3
[5]
  HVA I Ca spared: half
  inhibition of HVA I Ca: 4.45 ± 0.78%
  suppression of I Ca: 13.97 ± 1.39%
[5]; 10 µM
  inhibition of HVA I Ca: ~55% and 56.5 ± 1.9%

Source: article PMC7875911 (Frontiers in Pharmacology, 2021)
